Measurements: the NIST ThermoML archive (doi:10.1016/j.jct.2012.01.005)
Numbers after ± are expanded uncertainties.

Key:
[1] = Liquid; for mass density: 298.15 K, 101.33 kPa, Buoyancy - hydrostatic balance
[2] = refractive index (Na D-line) (dimensionless); conditions: 298.15 K; 101.33 kPa; Liquid; Standard Abbe refractometry

## CCCC(=O)OCC1CO1 (stereo not drawn) [glycidyl butyrate]
[1]
  mass density: 1047 ± 10 kg/m3
[1]; 407.85 K, Closed cell (Static) method
  vapor or sublimation pressure: 15.74 ± 1.2 kPa
[1]; 420.25 K, Closed cell (Static) method
  vapor or sublimation pressure: 23.87 ± 1.2 kPa
[1]; 427.85 K, Closed cell (Static) method
  vapor or sublimation pressure: 29.87 ± 1.3 kPa
[1]; 434.15 K, Closed cell (Static) method
  vapor or sublimation pressure: 36.41 ± 1.3 kPa
[1]; 439.15 K, Closed cell (Static) method
  vapor or sublimation pressure: 41.34 ± 1.3 kPa
[1]; 444.25 K, Closed cell (Static) method
  vapor or sublimation pressure: 46.67 ± 1.3 kPa
[1]; 449.15 K, Closed cell (Static) method
  vapor or sublimation pressure: 55.99 ± 2.8 kPa
[1]; 449.25 K, Closed cell (Static) method
  vapor or sublimation pressure: 54.4 ± 1.3 kPa
[1]; 453.85 K, Closed cell (Static) method
  vapor or sublimation pressure: 62.67 ± 1.3 kPa
[1]; 458.15 K, Closed cell (Static) method
  vapor or sublimation pressure: 69.6 ± 1.3 kPa
[1]; 460.45 K, Closed cell (Static) method
  vapor or sublimation pressure: 74.67 ± 1.3 kPa
[1]; 464.55 K, Closed cell (Static) method
  vapor or sublimation pressure: 82.67 ± 1.3 kPa
[1]; 466.55 K, Closed cell (Static) method
  vapor or sublimation pressure: 87.33 ± 1.3 kPa
[1]; 467.15 K, Closed cell (Static) method
  vapor or sublimation pressure: 88.66 ± 4.1 kPa
[1]; 468.75 K, Closed cell (Static) method
  vapor or sublimation pressure: 93.33 ± 1.4 kPa
[1]; 471.15 K, Closed cell (Static) method
  vapor or sublimation pressure: 100 ± 1.4 kPa
[2]
  refractive index: 1.429 ± 0.002

## ClCC1CO1 (stereo not drawn) [1-chloro-2,3-epoxypropane]
[1]
  mass density: 1175.9 ± 12 kg/m3
[1]; 370.95 K, Visual
  vapor or sublimation pressure: 55.99 ± 2.1 kPa
[1]; 384.15 K, Visual
  vapor or sublimation pressure: 88.66 ± 3.4 kPa
[1]; 389.35 K, Visual
  vapor or sublimation pressure: 100 ± 4.2 kPa
[2]
  refractive index: 1.434 ± 0.002
